Data taken from article PMC11053168, “Agonist-selective activation of individual G-proteins by muscarinic receptors” (Scientific Reports, 2024).

Target: T1, M2 receptor (Homo sapiens, UniProt P08172)
T1 sequence (P08172 1-466): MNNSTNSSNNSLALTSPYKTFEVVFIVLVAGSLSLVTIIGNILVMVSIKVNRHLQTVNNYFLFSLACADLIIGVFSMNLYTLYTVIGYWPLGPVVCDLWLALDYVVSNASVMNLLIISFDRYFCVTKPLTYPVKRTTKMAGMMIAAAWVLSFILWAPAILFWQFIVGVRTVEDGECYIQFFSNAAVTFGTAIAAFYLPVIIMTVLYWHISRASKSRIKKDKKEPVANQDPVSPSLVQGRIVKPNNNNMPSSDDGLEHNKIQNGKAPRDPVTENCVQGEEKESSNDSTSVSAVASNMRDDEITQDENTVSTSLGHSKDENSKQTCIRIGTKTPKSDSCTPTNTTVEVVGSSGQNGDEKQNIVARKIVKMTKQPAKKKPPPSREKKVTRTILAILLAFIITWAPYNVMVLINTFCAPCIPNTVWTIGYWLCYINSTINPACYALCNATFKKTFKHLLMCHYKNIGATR
Test: Agonist-stimulated GTPγ[35S] binding to Sf9 membranes expressing M2 receptor and individual Gαi/o
Assay type: biochemical
Set-up: host or cells: Sf9 insect cells, baculovirus (pFastBac1 / Bac-to-Bac); membranes
Settings: for Activation of individual Gi/o Gα types: M2 with GαoA, GαoB, Gαi1, Gαi2, Gαi3; for Operational efficacy lower than the efficacy of CBC: at GαoA and GαoB; for Signalling bias among Gαi/o relative to CBC: RAi / bias factor, CBC reference
Experimental: Baculoviral stocks for expression of M2 receptor and individual Gα-subunits of Gi/o G-proteins (GαoA, GαoB, Gαi1, Gαi2, Gαi3) in SF9 cells were generated according to Bac-to-Bac® baculovirus expression system—user guide (https://assets.thermofisher.com/TFS-Assets/LSG/manuals/MAN0000414_BactoBacExpressionSystem_UG.pdf). […] After 96 h at 27 °C, baculoviral viral particles released into the medium were harvested. After centrifugation at 500×g for 10 min to remove detached cells and cell debris, baculoviral stock P0 was ready for amplification. Suspension of Sf9 cells at density 2 × 10^6 cells per ml was infected by baculoviral stock P0 in ratio 1:1000 and after 72 h of growth (in a shaking incubator at 135 rpm and 27 °C) the amplified baculoviral stock P1 was harvested. The cell suspension was centrifugated at 500×g for 10 min to remove cells and cell debris and the supernatant containing a high level of baculoviral particles P1 was collected. FBS to the concentration of 0.5% was added and the stock was stored at 4 °C, protected from light for up to 6 months. For the quantification of baculoviral particles, a plaque assay was used.
Cells were grown in suspension culture in 250 ml Erlenmeyer flasks in Sf-900™ III serum-free medium in an aerated shaking incubator at 27 °C and 135 rpm. Cells were maintained at the density of 1–4 × 10^6 cells per ml. Sf9 cells at the density 2 × 10^6 were co-infected with baculoviral stock for the M2 receptor and a particular Gi/o Gα in the ratio (1:10). […] Infected cells were harvested by centrifugation 1000×g for 10 min. Cell pellets were kept at − 80 °C.
Membranes were prepared as described previously by Randakova et al.[33]. Cells harvested from twenty 100 mm petri dishes (CHO) or 30 ml of cell suspension (Sf9) were suspended in 20 ml of ice-cold incubation medium (100 mM NaCl, 20 mM Na-HEPES, 10 mM MgCl2, pH 7.4) supplemented with 10 mM EDTA and homogenized on ice by two 30‐s strokes using a Polytron homogenizer (Ultra-Turrax; Janke & Kunkel GmbH & Co. KG, IKA-Labortechnik, Staufen, Germany) with a 30 s pause between strokes. Cell homogenates were centrifuged for 5 min at 1000×g to remove whole cells and cell nuclei. The resulting supernatants were centrifuged for 30 min at 30,000×g. Pellets were suspended in a fresh incubation medium, incubated on ice for 30 min, and centrifuged again. The resulting membrane pellets were kept at − 80 °C until assayed within 10 weeks.
Agonist stimulated GTPγ[^35S]binding to membranes from Sf9 cells expressing the M2 receptors in a combination with α-subunit of given Gi/o type (GαoA, GαoB, Gαi1, Gαi2, Gαi3) was measured in 96-well plates in a final volume of 200 µl of incubation medium described above containing 500 pM of GTPγ[^35S] […] Nonspecific binding was determined in the presence of 1 µM nonlabelled GTPγS. Incubations were terminated and processed as described above. Parameters of functional response were calculated according to Eq. (3) after subtraction of non-specific binding.
The basal value of GTPγ[^35S] binding was determined in the absence of the agonist. After subtraction of non-specific binding determined in the presence of 10 μM nonlabelled GTPγS, GTPγ[^35S]binding was divided by the basal value and expressed as folds over basal. […] Then Eq. (3) was fitted to the data using GraphPad. Obtained EMAX and EC50 values were used to calculate RAi values using Eq. (7). To determine τ and KA of the functional responses system EMAX was determined as described earlier. Basal values were subtracted and functional responses were expressed as fractions of system EMAX. […] Obtained τ and KA values were used to calculate the bias factor according to Eq. (8), see below, for each experiment.
Equation (4) was fitted to data by the two-step procedure described earlier[61]

Row | GTPγ[35S] binding signal (M2 + Gi1) | GTPγ[35S] binding signal relative to the detection limit (M2 + GoA) | SMILES | GTPγ[35S] binding signal at Gi1 as % of GoA (M2 + Gi1 vs M2 + GoA) [%] | Activation of individual Gi/o Gα types | Operational efficacy lower than the efficacy of CBC | Signalling bias among Gαi/o relative to CBC (M2) | Bias GoA vs GoB (M2, relative to carbachol)
1 |  |  | C[N+](C)(C)CCOC(N)=O [CBC, carbachol, reference compound] | 62 | activated all Gi/o types |  |  | 
2 |  |  | c1csc(C[N+]23CCC(CC2)CC3)c1 [JB-8A] |  | activated GαoA and GαoB only | 20–30 × |  | 
3 |  |  | C[N+]1(Cc2cccs2)CCOCC1 [JB-12-2] |  | activated all Gi/o Gα |  | biased to GαoA | more than 5 fold
4 |  |  | COC(=O)C1=CCCN(Cc2cccs2)C1 [JB-13-1] |  | activated all Gi/o Gα |  | biased to Gαi3 | 
5 | no signal | more than 20 fold | C[N+]1(Cc2cccs2)CC=CCC1 (centres unmarked) [JR-6, 1-methyl-1-[(thiophen-2-yl)methyl]-1,2,3,6-tetra hydropyridin-1-ium] |  | activated GαoA and GαoB only | approx 10 × | absolute selectivity to Gαo with a preference for GαoB | 
6 |  |  | C[N+]1(Cc2ccc(Cl)s2)CC=CCC1 (centres unmarked) [PN-152, 1-[(5-chlorothiophen-2-yl)methyl]-1-methyl-1,2,3,6-tetrahydropyridin-1-ium] |  | activated GαoA and GαoB only | ~15 × | absolute selectivity to Gαo with a preference for GαoB | 
